The text below walks through data of patent US20260263573A1, “Tumor Immunotherapy” (PingShan Translational Medicine Center, Shenzhen Bay …, priority 2022, published 2026).

The experiment deals with B16-OVA melanoma. As to the kind of experiment: Lung metastasis model. Type of experiment: in vivo, mice. The conditions noted are these: day 20 after tail vein injection of B16-OVA. How it is done: Furthermore, a lung metastasis model was selected to evaluate the prevention of lung colonization of melanoma with nanocomposites (FIG. 21a). The administration was similar to that of the tumor model, except that 5×10^5 B16-OVA cells per mouse were injected via tail vein 7 days after the end of the last administration. The mice were dissected on day 20 after injection, the lungs of the mice were removed, and the lungs were washed with Fekete's eluent (70 mL of alcohol, 10 mL of formaldehyde, 5 mL of glacial acetic acid, 15 mL of water). After decoloration, lung tumor nodules were counted. Finally, all tissues were sent to Univ company for tissue section and H&E staining analysis.

Take “Ac-WMβASIINFEKL (WMXSIINFEKL; N-terminal acetyl; beta-alanine; N-terminal Acetylation and Xaa represents a ??-alanine isomer of alanine at the 3AA position; (3)..(3) Xaa is ??-alanine (beta-alanine), an isomer of Alanine) [OVA]”: the “H&E staining of lung tissue: melanoma cell infestation” value is “lung cells infected with melanoma cells were also found”.
